By IC50 is commonly meant the concentration that gives 50% inhibition. Low values mean greater potency, high ones weaker potency.

Where only a bound is given, the exact number is not on record here.

Drawing on patent US20120101095A1, “ALKOXY-THIENOPYRIMIDINES AS TGF-BETA RECEPTOR KINASE MODULATORS” (priority 2009, published 2012), this text covers IC50 for 31 compounds.

This test addresses T1, GST-ALK5 (Homo sapiens, UniProt P36897).
T1 sequence (P36897 34-503): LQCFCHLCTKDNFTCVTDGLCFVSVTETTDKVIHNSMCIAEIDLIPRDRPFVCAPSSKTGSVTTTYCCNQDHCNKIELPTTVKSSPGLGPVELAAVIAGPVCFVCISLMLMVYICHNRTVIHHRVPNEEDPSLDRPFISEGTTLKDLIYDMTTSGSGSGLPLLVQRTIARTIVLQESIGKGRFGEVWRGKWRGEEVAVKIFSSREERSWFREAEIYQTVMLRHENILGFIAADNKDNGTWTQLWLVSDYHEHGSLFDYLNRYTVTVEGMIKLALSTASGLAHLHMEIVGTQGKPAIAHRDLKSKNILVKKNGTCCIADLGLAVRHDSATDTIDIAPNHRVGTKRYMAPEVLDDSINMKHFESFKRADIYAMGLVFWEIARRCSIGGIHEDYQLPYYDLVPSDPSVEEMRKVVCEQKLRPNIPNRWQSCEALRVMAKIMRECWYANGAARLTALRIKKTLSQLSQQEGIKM
Description: In-vitro (enzyme) kinase assay, 384-well flashplate, GST-SMAD2 substrate. In kind it is biochemical. Conditions: 31.2 nM GST-ALK5, 439 nM GST-SMAD2, 3 mM ATP, 30° C., 45 min. Here is the method:
In-Vitro (Enzyme) Assay for Determination of the Efficacy of Inhibitors of the Inhibition of TGF-Beta-Mediated Effects
The kinase assay was carried out as 384-well flashplate assay. 31.2 nM of GST-ALK5, 439 nM of GST-SMAD2 and 3 mM of ATP (with 0.3 μCi of ^33P-ATP/well) were incubated in a total volume of 35 μl (20 mM of HEPES, 10 mM of MgCl2, 5 mM of MnCl2, 1 mM of DTT, 0.1% of BSA, pH 7.4) without or with test substance (5-10 concentrations) at 30° C. for 45 min. The reaction was stopped using 25 μl of 200 mM EDTA solution, filtered with suction at room temperature after 30 min, and the wells were washed with 3 times 100 μl of 0.9% NaCl solution. Radioactivity was measured in the TopCount. The IC50 values were calculated using RS1 (Table 1). Above and below, all temperatures were indicated in ° C.
With `NC(=O)c1sc2nc(OCCn3ccnc3)nc(-c3cccc(Cl)c3)c2c1N` [No 43, 5-Amino-4-(3-chloro-phenyl)-2-(2-imidazol-1-yl-ethoxy)-thieno[2,3-d]pyrimidine-6-carboxylic acid amide], the IC50 fell in the range of 100 to 500 nM.

`CC(C)(C)OCCOc1nc(-c2cccc(Cl)c2)c2c(N)c(C(N)=O)sc2n1` [No 11, 5-Amino-2-(2-tert-butoxy-ethoxy)-4-(3-chloro-phenyl)-thieno[2,3-d]pyrimidine-6-carboxylic acid amide] returned an IC50 of 100 to 500 nM.

Turning to `Cc1cccc(-c2nc(OCCCn3cccn3)nc3sc(C(N)=O)c(N)c23)n1` [No 49, 5-Amino-4-(6-methyl-pyridin-2-yl)-2-(3-pyrazol-1-yl-propoxy)-thieno[2,3-d]pyrimidine-6-carboxylic acid amide], the IC50 was below 100 nM.

For the compound `NC(=O)c1sc2nc(OCC3CCCC3)nc(-c3cccc(C(F)(F)F)c3)c2c1N` [No 8, 5-Amino-2-cyclopentylmethoxy-4-(3-trifluoromethyl-phenyl)-thieno[2,3-d]pyrimidine-6-carboxylic acid amide], the IC50 is above 1000 nM.

`COc1nc(-c2cccc(Cl)c2)c2c(N)c(C(N)=O)sc2n1` [No 6, 5-Amino-4-(3-chloro-phenyl)-2-methoxy-thieno[2,3-d]pyrimidine-6-carboxylic acid amide] came in with an IC50 below 100 nM.

Compound `NC(=O)c1sc2nc(OCC3(CO)CC3)nc(-c3cccc(Cl)c3)c2c1N` [No 65, 5-Amino-4-(3-chloro-phenyl)-2-(1-hydroxymethyl-cyclopropylmethoxy)-thieno[2,3-d]pyrimidine-6-carboxylic acid amide] registered an IC50 of 100 to 500 nM.

`NC(=O)c1sc2nc(OCC3CCCC3)nc(-c3cccc(Cl)c3)c2c1N` [No 7, 5-Amino-4-(3-chloro-phenyl)-2-cyclopentylmethoxy-thieno[2,3-d]pyrimidine-6-carboxylic acid amide]: the concentration for half-maximal inhibition (IC50) is 500 to 1000 nM.

Turning to `Cn1cnc(COc2nc(-c3cccc(Cl)c3)c3c(N)c(C(N)=O)sc3n2)c1` [No 45, 5-Amino-4-(3-chloro-phenyl)-2-(1-methyl-1H-imidazol-4-ylmethoxy)-thieno[2,3-d]pyrimidine-6-carboxylic acid amide], the concentration for half-maximal inhibition (IC50) is below 100 nM.

For `Cc1ccc(-c2nc(OCCn3cccn3)nc3sc(C(N)=O)c(N)c23)o1` [No 29, 5-Amino-4-(5-methyl-furan-2-yl)-2-(2-pyrazol-1-yl-ethoxy)-thieno[2,3-d]pyrimidine-6-carboxylic acid amide], the IC50 lay within 100 to 500 nM.

The compound `NC(=O)c1sc2nc(OC[C@@H](O)CO)nc(-c3cccc(Cl)c3)c2c1N` [No 18, 5-Amino-4-(3-chloro-phenyl)-2-((S)-2,3-dihydroxy-propoxy)-thieno[2,3-d]pyrimidine-6-carboxylic acid amide] registered an IC50 of 100 to 500 nM.

`Cc1ccc(-c2nc(OCCCO)nc3sc(C(N)=O)c(N)c23)o1` [No 22, 5-Amino-2-(3-hydroxy-propoxy)-4-(5-methyl-furan-2-yl)-thieno[2,3-d]pyrimidine-6-carboxylic acid amide] had an IC50 of 100 to 500 nM.

As to `NC(=O)c1sc2nc(OC[C@@H]3CCCN3)nc(-c3cccc(Cl)c3)c2c1N` [No 76, 5-Amino-4-(3-chloro-phenyl)-2-((S)-1-pyrrolidin-2-ylmethoxy)-thieno[2,3-d]pyrimidine-6-carboxylic acid amide], the IC50 was above 1000 nM.

`COc1nc(-c2ccc(C)o2)c2c(N)c(C(N)=O)sc2n1` [No 19, 5-Amino-2-methoxy-4-(5-methyl-furan-2-yl)-thieno[2,3-d]pyrimidine-6-carboxylic acid amide] showed an IC50 below 100 nM.

`Cc1ccc(-c2nc(OCc3ccccn3)nc3sc(C(N)=O)c(N)c23)o1` [No 38, 5-Amino-4-(5-methyl-furan-2-yl)-2-(pyridin-2-ylmethoxy)-thieno[2,3-d]pyrimidine-6-carboxylic acid amide] came in with an IC50 of 100 to 500 nM.

As to `Cn1nccc1COc1nc(-c2cccc(Cl)c2)c2c(N)c(C(N)=O)sc2n1` [No 47, 5-Amino-4-(3-chloro-phenyl)-2-(2-methyl-2H-pyrazol-3-ylmethoxy)-thieno[2,3-d]pyrimidine-6-carboxylic acid amide], the IC50 was below 100 nM.

In the case of `NC(=O)c1sc2nc(OCC3CCC3)nc(-c3cccc(Cl)c3)c2c1N` [No 9, 5-Amino-4-(3-chloro-phenyl)-2-cyclobutylmethoxy-thieno[2,3-d]pyrimidine-6-carboxylic acid amide], the IC50 lay within 100 to 500 nM.

In the case of `NC(=O)c1sc2nc(OCc3ccn(CCO)n3)nc(-c3cccc(Cl)c3)c2c1N` [No 74, 5-Amino-4-(3-chloro-phenyl)-2-[1-(2-hydroxy-ethyl)-1H-pyrazol-3-ylmethoxy]-thieno[2,3-d]pyrimidine-6-carboxylic acid amide], the IC50 was below 100 nM.

Compound `NC(=O)c1sc2nc(OCC3CC3)nc(-c3cc4ccccc4s3)c2c1N` [No 2] had a half-inhibitory concentration (IC50) above 1000 nM.

`Cc1ccc(-c2nc(OCc3ccn(C)n3)nc3sc(C(N)=O)c(N)c23)o1` [No 32, 5-Amino-4-(5-methyl-furan-2-yl)-2-(1-methyl-1H-pyrazol-3-ylmethoxy)-thieno[2,3-d]pyrimidine-6-carboxylic acid amide] displayed an IC50 of 100 to 500 nM.

`NC(=O)c1sc2nc(OCC3CCCO3)nc(-c3cccc(Cl)c3)c2c1N` (stereo not shown) [No 73, 5-Amino-4-(3-chloro-phenyl)-2-(tetrahydro-furan-2-ylmethoxy)-thieno[2,3-d]pyrimidine-6-carboxylic acid amide] came in with an IC50 of 100 to 500 nM.

Turning to `Cn1ccc(COc2nc(-c3cccc(Cl)c3)c3c(N)c(C(N)=O)sc3n2)n1` [No 46, 5-Amino-4-(3-chloro-phenyl)-2-(1-methyl-1H-pyrazol-3-ylmethoxy)-thieno[2,3-d]pyrimidine-6-carboxylic acid amide], the IC50 is below 100 nM.

Take `COc1nc(-c2cccc(C(F)(F)F)c2)c2c(N)c(C(N)=O)sc2n1` [No 5, 5-Amino-2-methoxy-4-(3-trifluoromethyl-phenyl)-thieno[2,3-d]pyrimidine-6-carboxylic acid amide]: the IC50 was 100 to 500 nM.

Compound `Cc1cccc(-c2nc(OCc3cn(C)cn3)nc3sc(C(N)=O)c(N)c23)n1` [No 40, 5-Amino-2-(1-methyl-1H-imidazol-4-ylmethoxy)-4-(6-methyl-pyridin-2-yl)-thieno[2,3-d]pyrimidine-6-carboxylic acid amide] gave an IC50 below 100 nM.

In turn, `Cc1ncsc1CCOc1nc(-c2cccc(Cl)c2)c2c(N)c(C(N)=O)sc2n1` [No 51, 5-Amino-4-(3-chloro-phenyl)-2-[2-(4-methyl-thiazol-5-yl)-ethoxy]-thieno[2,3-d]pyrimidine-6-carboxylic acid amide] had an IC50 below 100 nM.

Consider `NC(=O)c1sc2nc(OCC3CC3)nc(-c3cccc(Cl)c3)c2c1N` [No 4, 5-Amino-4-(3-chloro-phenyl)-2-cyclopropylmethoxy-thieno[2,3-d]pyrimidine-6-carboxylic acid amide], for which the IC50 was below 100 nM.

In turn, `Cc1cccc(-c2nc(OCc3cnn(C)c3)nc3sc(C(N)=O)c(N)c23)n1` [No 33, 5-Amino-2-(1-methyl-1H-pyrazol-4-ylmethoxy)-4-(6-methyl-pyridin-2-yl)-thieno[2,3-d]pyrimidine-6-carboxylic acid amide] came in with an IC50 below 100 nM.

Take `COCc1cnn(CCOc2nc(-c3cccc(Cl)c3)c3c(N)c(C(N)=O)sc3n2)c1` [No 52, 5-Amino-4-(3-chloro-phenyl)-2-[2-(4-methoxymethyl-pyrazol-1-yl)-ethoxy]-thieno[2,3-d]pyrimidine-6-carboxylic acid amide]: the half-maximal inhibitory concentration (IC50) fell in the range of 100 to 500 nM.

The compound `Cc1ccc(-c2nc(OCCO)nc3sc(C(N)=O)c(N)c23)o1` [No 21, 5-Amino-2-(2-hydroxy-ethoxy)-4-(5-methyl-furan-2-yl)-thieno[2,3-d]pyrimidine-6-carboxylic acid amide] had an IC50 of 100 to 500 nM.

`NC(=O)c1sc2nc(OCCN3CCOCC3=O)nc(-c3cccc(Cl)c3)c2c1N` [No 55, 5-Amino-4-(3-chloro-phenyl)-2-[2-(3-oxo-morpholin-4-yl)-ethoxy]-thieno[2,3-d]pyrimidine-6-carboxylic acid amide] showed a 50% inhibitory concentration (IC50) below 100 nM.

Consider `NC(=O)c1sc2nc(OCC#CCO)nc(-c3cccc(Cl)c3)c2c1N` [No 59, 5-Amino-4-(3-chloro-phenyl)-2-(4-hydroxy-but-2-ynyloxy)-thieno[2,3-d]pyrimidine-6-carboxylic acid amide], for which the IC50 was below 100 nM.

Compound `NC(=O)c1sc2nc(OCC3CC3)nc(-c3cccc(C(F)(F)F)c3)c2c1N` [No 14, 5-Amino-2-cyclopropylmethoxy-4-(3-trifluoromethyl-phenyl)-thieno[2,3-d]pyrimidine-6-carboxylic acid amide] yielded an IC50 above 1000 nM.
